Laboratory results as given in article PMC4494852, “Microwave-assisted preparation, structural characterization, lipophilicity, and anti-cancer assay of some hydroxycoumarin derivatives” (Monatshefte Fur Chemie, 2014).

Key:
[1] = tested on: non-small-cell lung cancer NCI-H522; parameters: method as in PMID 21439691; settings: cited from earlier work
prostate cancer PC-3 = tested on: prostate cancer PC-3; parameters: method as in PMID 21439691; settings: cited from earlier work
leukemia RPMI-8226 = tested on: leukemia RPMI-8226; parameters: method as in PMID 21439691; settings: cited from earlier work
leukemia HL-60 (TB) = tested on: leukemia HL-60 (TB); parameters: method as in PMID 21439691; settings: cited from earlier work
leukemia K-562 = tested on: leukemia K-562; parameters: method as in PMID 21439691; settings: cited from earlier work
[2] = Lipophilicity by reversed-phase TLC on RP-18 WF254s plates with standardization; settings: for φ 0 (intercept of the trend line with abscissa axis): molar fraction for which lipophilicity equals 0
[3] = tested on: human prostate cancer cells DU145; test: Cytotoxicity assay (PrestoBlue, resazurin); type: cell-based; settings: 10 and 100 μM, 48 h
Experimental: (§1) Synthesized substances were dissolved in DMSO (Sigma-Aldrich) to obtain 20 mM stock solutions and kept in 4 °C prior to use.
(§2) The human prostate cancer cells DU145 and mouse melanoma cells B16F10 were maintained in humidified incubator containing 5 % CO2 at 37 °C. DU145 cells were cultured in RPMI medium and B16F10 were cultured in DMEM medium. The media were supplemented with 10 % of fetal calf serum (FCS) and 1 % of antibiotic antimycotic (Sigma). Cells were passaged every 2–3 days. All cell lines were obtained from ATCC (The Global Bioresource Center).
(§3) PrestoBlue (test based on resazurin) was used for analysis cytotoxicity/cytostatic effects. DU145 and B16F10 cells were seeded on 96-well plate (10 × 10^3 cells per well). Examined substances were added to culture after overnight cell incubation. Two concentrations of substances (10 and 100 μM) were used. Control cells and control cells with solvent (DMSO) were applied. After 48 h PrestoBlue test was performed.

[4] = tested on: mouse melanoma cells B16F10; test: Cytotoxicity assay (PrestoBlue, resazurin); type: cell-based; settings: B16-F10 (melanoma), 10 and 100 μM, 48 h
Experimental: as §1, §2, §3

[5] = tested on: Walker 256 carcinosarcoma; parameters: method as in doi:10.1021/jo00316a018; settings: cited from earlier work
Lewis lung carcinoma = tested on: Lewis lung carcinoma; parameters: method as in doi:10.1021/jo00316a018; settings: cited from earlier work
P-388 lymphotic leukemia = tested on: P-388 lymphotic leukemia; parameters: method as in doi:10.1021/jo00316a018; settings: cited from earlier work
sarcoma 180 = tested on: sarcoma 180; parameters: method as in doi:10.1021/jo00316a018; settings: cited from earlier work
[6] = known logP of standards; cited from earlier work

Structure (SMILES)	S (slope of the trend line RM vs φ) ([2]; acetonitrile/water)	φ 0 (intercept of the trend line with abscissa axis) ([2]; acetonitrile/water)	S (slope of the trend line RM vs φ) ([2]; dioxane/water)	φ 0 (intercept of the trend line with abscissa axis) ([2]; dioxane/water)	S (slope of the trend line RM vs φ) ([2]; isopropanol/water)	φ 0 (intercept of the trend line with abscissa axis) ([2]; isopropanol/water)	S (slope of the trend line RM vs φ) ([2]; methanol/water)	φ 0 (intercept of the trend line with abscissa axis) ([2]; methanol/water)	melting point [°C]	further results
CC(=O)c1c(OCC#N)ccc2c(C)cc(=O)oc12 [8-Acetyl-7-(cyanomethoxy)-4-methylcoumarin]	–	–	–	–	–	–	–	–	–	growth inhibition [1]: inhibited the growth; growth inhibition (prostate cancer PC-3): inhibited the growth; growth inhibition (leukemia RPMI-8226): inhibited the growth; growth inhibition (leukemia HL-60 (TB)): inhibited the growth; growth inhibition (leukemia K-562): inhibited the growth
Cc1cc(O)c2c(C)cc(=O)oc2c1 [Compound 2, 5-hydroxy-4,7-dimethylcoumarin]	3.2466	0.437	3.3439	0.483	2.8574	0.445	2.746	0.675	–	cytotoxicity in primary screen [3]: slightly active; cytotoxicity in primary screen [4]: slightly active
N#CCOc1cc(=O)oc2ccccc12 [Compound 4, 4-(cyanomethoxy)chromen-2-one]	2.8179	0.438	2.5467	0.452	2.2371	0.401	2.2036	0.607	204	–
C/C(=C\COc1ccc2ccc(=O)oc2c1)C1=CC(=O)C(C)(C)O1 [Geiparvarin]	–	–	–	–	–	–	–	–	–	inhibitory activity [5]: significant inhibitory activity; inhibitory activity (Lewis lung carcinoma): significant inhibitory activity; inhibitory activity (P-388 lymphotic leukemia): significant inhibitory activity; inhibitory activity (sarcoma 180): significant inhibitory activity
CC(=O)c1c(C)cc2oc(=O)cc(C)c2c1O [Compound 3, 6-acetyl-5-hydroxy-4,7-dimethylcoumarin]	3.706	0.519	4.1018	0.55	3.15	0.479	3.2113	0.754	–	cytotoxicity in primary screen [3]: slightly active; cytotoxicity in primary screen [4]: slightly active
Cc1cc(OCC#N)c2c(C)cc(=O)oc2c1 [Compound 5, 5-(cyanomethoxy)-4,7-dimethylchromen-2-one]	3.3589	0.499	3.2254	0.498	2.3947	0.434	2.677	0.669	214 to 216	–
CC(=O)c1c(C)cc2oc(=O)cc(C)c2c1OCC#N [Compound 6, 6-acetyl-5-(cyanomethoxy)-4,7-dimethylchromen-2-one]	3.7596	0.517	3.2502	0.501	3.2079	0.383	2.3247	0.577	283 to 284	–
O=C1Nc2ccccc2C1=O [Isatine, isatine, reference compound]	2.0278	–	1.2132	–	2.0065	–	1.4786	–	–	R M0 (lipophilicity extrapolated to 100 % water) ([2]; acetonitrile/water): 0.7435; R M0 (lipophilicity extrapolated to 100 % water) ([2]; dioxane/water): 0.3418; R M0 (lipophilicity extrapolated to 100 % water) ([2]; isopropanol/water): 0.5885; R M0 (lipophilicity extrapolated to 100 % water) ([2]; methanol/water): 0.6009; LogP value [6]: 0.83
